For 13 molecules, T/C results are on record in PubChem BioAssay AID328 (DTP/NCI, 2004).

The test system of the assay is BDF1 mice, P388 leukemia ip, median survival T/C. Kind of assay: NCI In Vivo Anticancer Drug Screen. Data for tumor model P388 Leukemia (intraperitoneal) in B6D2F1 (BDF1) mice. The settings on record: endpoint: median survival time, higher = longer survival. Put shortly:
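Each value expresses how treatment altered survival: treated-mouse outcome over vehicle-mouse outcome, both groups bearing the transplanted tumour.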

The mark [1] stands for this setting: dose: 12.5 mg/kg/injection, schedule: Q01DX009 (ip), vehicle: Klucel (hydroxypropylcellulose) (HPC).
The mark [2] stands for this setting: dose: 25.0 mg/kg/injection, schedule: Q01DX009 (ip), vehicle: Klucel (hydroxypropylcellulose) (HPC).
[3] abbreviates: dose: 50.0 mg/kg/injection, schedule: Q01DX009 (ip), vehicle: Klucel (hydroxypropylcellulose) (HPC).
The mark [4] stands for this setting: dose: 25.0 mg/kg/injection, schedule: Q04DX003 (ip), vehicle: Klucel (hydroxypropylcellulose) (HPC).
Where [5] appears, read: dose: 50.0 mg/kg/injection, schedule: Q04DX003 (ip), vehicle: Klucel (hydroxypropylcellulose) (HPC).
The mark [6] stands for this setting: dose: 25.0 mg/kg/injection, schedule: Q01DX009 (ip), vehicle: saline.
The mark [7] stands for this setting: dose: 100.0 mg/kg/injection, schedule: Q01DX009 (ip), vehicle: saline with Tween-80.
[8] abbreviates: dose: 200.0 mg/kg/injection, schedule: Q01DX009 (ip), vehicle: saline with Tween-80.
[9] abbreviates: dose: 400.0 mg/kg/injection, schedule: Q01DX009 (ip), vehicle: saline with Tween-80.

Inconclusive results and toxic doses are left out.

As to `CCOC(=O)C(CC(C)C)NC(=O)C(Cc1ccc(N(CCCl)CCCl)cc1)NC(C)=O` (configuration not stated), the T/C was 104 % of control (dose: 1.0 mg/kg/injection, schedule: Q01DX009 (ip), vehicle: other); 109 % of control (dose: 2.0 mg/kg/injection, schedule: Q01DX009 (ip), vehicle: other); 163 % of control (dose: 8.0 mg/kg/injection, schedule: Q01DX009 (ip), vehicle: other); 163 % of control (dose: 32.0 mg/kg/injection, schedule: Q01DX009 (ip), vehicle: other); 172 % of control (dose: 64.0 mg/kg/injection, schedule: Q01DX009 (ip), vehicle: other); 195 % of control (dose: 128.0 mg/kg/injection, schedule: Q01DX009 (ip), vehicle: other). Besides, under “dose: 256.0 mg/kg/injection, schedule: Q01DX009 (ip), vehicle: other”, the T/C is 89 % of control.
For `CCCCNCCC(SSSC(CCNCCCC)c1ccc(Cl)cc1)c1ccc(Cl)cc1` (configuration not stated), the T/C by setting is: (dose: 6.25 mg/kg/injection, schedule: Q04DX003 (ip), vehicle: saline with Tween-80) 104 % of control; (dose: 12.5 mg/kg/injection, schedule: Q04DX003 (ip), vehicle: saline with Tween-80) 100 % of control; (dose: 25.0 mg/kg/injection, schedule: Q04DX003 (ip), vehicle: saline with Tween-80) 109 % of control.
Take `CN1CCN(CCOC(=O)N2c3ccccc3Sc3ccccc32)CC1`: the T/C is, setting by setting: under setting [1], 100 % of control; under setting [2], 105 % of control; under setting [3], 100 % of control.
`CO[C@H]1/C=C/O[C@@]2(C)Oc3c(C)c(O)c4c(O)c(c(/C=N/N5CCN(C)CC5)c(O)c4c3C2=O)NC(=O)/C(C)=C\C=C\[C@H](C)[C@H](O)[C@@H](C)[C@@H](O)[C@@H](C)[C@H](OC(C)=O)[C@@H]1C`: the T/C is 109 % of control (dose: 50.0 mg/kg/injection, schedule: Q01DX010 (ip), vehicle: saline); 114 % of control (dose: 100.0 mg/kg/injection, schedule: Q01DX010 (ip), vehicle: saline); 109 % of control (dose: 200.0 mg/kg/injection, schedule: Q01DX010 (ip), vehicle: saline); 109 % of control (dose: 400.0 mg/kg/injection, schedule: Q01DX010 (ip), vehicle: saline).
Regarding `O=C1OCc2cc3ccccc3nc21`, the T/C (dose: 100.0 mg/kg/injection, schedule: Q04DX003 (ip), vehicle: saline with Tween-80) was 109 % of control; the T/C (dose: 200.0 mg/kg/injection, schedule: Q04DX003 (ip), vehicle: saline with Tween-80) is 100 % of control; the T/C (dose: 400.0 mg/kg/injection, schedule: Q04DX003 (ip), vehicle: saline with Tween-80) is 104 % of control.
Regarding `CCOC(=O)CC(C)(C)NCc1ccccc1`, the T/C under setting [2] is 90 % of control; the T/C under setting [4] is 108 % of control; the T/C under setting [5] was 95 % of control; the T/C (dose: 100.0 mg/kg/injection, schedule: Q01DX009 (ip), vehicle: Klucel (hydroxypropylcellulose) (HPC)) is 95 % of control; the T/C (dose: 100.0 mg/kg/injection, schedule: Q04DX003 (ip), vehicle: Klucel (hydroxypropylcellulose) (HPC)) is 116 % of control.
With `c1nc(SC2=NCCN2)c2[nH]cnc2n1`, the T/C (dose: 4.12 mg/kg/injection, schedule: Q01DX009 (ip), vehicle: saline) is 118 % of control; the T/C (dose: 6.25 mg/kg/injection, schedule: Q01DX009 (ip), vehicle: saline) is 150 % of control; the T/C (dose: 9.37 mg/kg/injection, schedule: Q01DX009 (ip), vehicle: saline) is 122 % of control; the T/C (dose: 12.5 mg/kg/injection, schedule: Q01DX009 (ip), vehicle: saline) was 119 % of control; the T/C (dose: 12.5 mg/kg/injection, schedule: Q04DX003 (ip), vehicle: saline) was 115 % of control; the T/C (dose: 21.0 mg/kg/injection, schedule: Q01DX009 (ip), vehicle: saline) was 100 % of control. Also, the T/C is 123 % of control under setting [6]; 115 % of control (dose: 25.0 mg/kg/injection, schedule: Q04DX003 (ip), vehicle: saline); 123 % of control (dose: 50.0 mg/kg/injection, schedule: Q04DX003 (ip), vehicle: saline).
As to `CCCCCCC(=O)/C=C/c1ccccc1Cl`, the T/C under setting [7] is 102 % of control, the T/C under setting [8] was 118 % of control and the T/C under setting [9] is 93 % of control.
Regarding `Cc1ncc(-c2ccc([N+](=O)[O-])cc2)o1`, the T/C was 87 % of control under setting [1]; 96 % of control (dose: 12.5 mg/kg/injection, schedule: Q04DX003 (ip), vehicle: Klucel (hydroxypropylcellulose) (HPC)); 91 % of control under setting [2]; 92 % of control under setting [4]; 91 % of control under setting [3]; 103 % of control under setting [5]. Besides, the T/C (dose: 200.0 mg/kg/injection, schedule: Q04DX003 (ip), vehicle: Klucel (hydroxypropylcellulose) (HPC)) was 92 % of control.
Turning to `Oc1ccc2ccccc2c1N=Nc1ccc(Cl)cc1`, the T/C is, setting by setting: under setting [7], 104 % of control; under setting [8], 95 % of control; under setting [9], 95 % of control.
Take `COc1ccc(NC(=O)Nc2ccccc2C(F)(F)F)cc1`: the T/C by setting is: (dose: 100.0 mg/kg/injection, schedule: Q01DX001 (ip), vehicle: saline with Tween-80) 95 % of control; (dose: 200.0 mg/kg/injection, schedule: Q01DX001 (ip), vehicle: saline with Tween-80) 100 % of control; (dose: 400.0 mg/kg/injection, schedule: Q01DX001 (ip), vehicle: saline with Tween-80) 90 % of control.
Regarding `CN1N=Nc2cccc3cccc1c23`, the T/C is 105 % of control under setting [6]; 100 % of control (dose: 50.0 mg/kg/injection, schedule: Q01DX009 (ip), vehicle: saline); 105 % of control (dose: 100.0 mg/kg/injection, schedule: Q01DX009 (ip), vehicle: saline).
For the molecule `C(=C/c1ccnc2ccccc12)/c1cccs1`, the T/C is 102 % of control (dose: 25.0 mg/kg/injection, schedule: Q01DX009 (ip), vehicle: saline with Tween-80); 110 % of control (dose: 50.0 mg/kg/injection, schedule: Q01DX009 (ip), vehicle: saline with Tween-80); 111 % of control under setting [7]; 119 % of control under setting [8].
